What all share (assay type): in vivo
In one test the test system is Polygonum convolvulus. Kind of test: Greenhouse postemergence herbicidal activity on POLCO, 20 DAT. As to conditions: Fallopia convolvulus, post-emergence. As for the experimental part:
(§1) For the post emergence treatment, the plants were first grown to the 2 leaf station (GS 12) and applied at GS 12-19 depending on the species. The herbicidal compositions were suspended or emulsified in water as distribution medium and sprayed using finely distributing nozzles.
(§2) The plants have been cultivated due to their individual requirements at 10 to 25° C. and. 20 to 35° C. The plants were irrigated due to their necessity.
(§3) The respective stated components A), were formulated as a 5% by weight strength emulsion concentrate containing wettol EM 31 20% and Cyclohexanone 80%. The respective stated components B), were formulated as either emulsifiable concentrates (EC), soluble liquids (SL), suspension concentrates (SC) or soluble granules (SG) as indicated in the table below. Component A, component B and the solvent system are introduced into the spray liquor used for applying the active compound. In the examples, the solvent used was water containing 1% Dash (Agnique ME 181 37.5%, Lutensit A-EP 22.5%, and Oleic Acid 5%) and 2% ammonium suflate.
(§4) In the following experiments, the herbicidal activity for the individual herbicide compounds (solo and mixture applications), the herbicidal succession was assessed 20 days after treatment (DAT). The evaluation for the damage on undesired weeds caused by the chemical compositions was carried out using a scale from 0 to 100%, compared to the untreated control plants. Here, 0 means no damage and 100 means complete destruction of the plants. The plants used in the greenhouse experiments belonged to the following species:
(§5) The value E, which corresponds to the effect (in %) that is to be expected if the activity of the individual compounds is additive, was calculated using the method of S. R. Colby (1967) “Calculating synergistic and antagonistic responses of herbicide combinations”, Weeds 15, p. 22 ff. Colby calculation for 2 way mixtures:
(§6) where: • X=effect in percent using herbicide A at an application rate a; • Y=effect in percent using herbicide B at an application rate b; • E=expected effect (in %) of A+B at application rates a+b
(§7) If the value observed in this manner is higher than the value E calculated according to Colby, a synergistic effect is present.

For a further test, the system named is Ipomoea hederacea. Kind of test: Greenhouse postemergence herbicidal activity on IPOHE, 20 DAT. As to conditions: Ipomoea hederacea, post-emergence, 62.5 gai/ha, read-out: % activity, solo application dicuran. The protocol:
as §1, §2, §3, §4, §5, §6, §7

In a further test the test system is BROST. Description: Greenhouse postemergence herbicidal activity on BROST, 20 DAT. Conditions: post-emergence, 62.5 gai/ha, read-out: % activity, solo application dicuran.
In another test the test system is Conyza canadiensis. Kind of test: Greenhouse postemergence herbicidal activity on ERICA, 20 DAT. As to conditions: Conyza, post-emergence. The protocol: as §1, §2, §3, §4, §5, §6, §7
The next test deals with Galium aparine. Kind of test: Greenhouse postemergence herbicidal activity on GALAP, 20 DAT. As to conditions: Galium aparine, post-emergence, 62.5 gai/ha, read-out: % activity, solo application dicuran. As for the experimental part: as §1, §2, §3, §4, §5, §6, §7
The test system of another test is Stellaria media. Description: Greenhouse postemergence herbicidal activity on STEME, 20 DAT. As to conditions: Stellaria media, post-emergence. The protocol: as §1, §2, §3, §4, §5, §6, §7
Another test deals with Chenopodium album. Description: Greenhouse postemergence herbicidal activity on CHEAL, 20 DAT. As to conditions: Chenopodium album, post-emergence, 62.5 gai/ha, read-out: % activity, solo application dicuran. The protocol:
as §1, §2, §3, §4, §5, §6, §7

A further test has as its system APESV. Description: Greenhouse postemergence herbicidal activity on APESV, 20 DAT. As to conditions: post-emergence, 62.5 gai/ha, read-out: % activity, solo application dicuran.
For another test, the system named is AVEFA. Description: Greenhouse postemergence herbicidal activity on AVEFA, 20 DAT. Conditions: Avena fatua, post-emergence, 62.5 gai/ha, read-out: % activity, solo application dicuran.
The subject of another test is DIGSA. Kind of test: Greenhouse postemergence herbicidal activity on DIGSA, 20 DAT. Conditions: Digitaria sanguinalis, post-emergence, 62.5 gai/ha, read-out: % activity, solo application dicuran.
The test system of the next test is Matricaria chamomilla. Kind of test: Greenhouse postemergence herbicidal activity on MATCH, 20 DAT. As to conditions: Matricaria chamomilla, post-emergence, 62.5 gai/ha, read-out: % activity, solo application dicuran. The protocol: as §1, §2, §3, §4, §5, §6, §7
The test system of a further test is ALOMY. Kind of test: Greenhouse postemergence herbicidal activity on ALOMY, 20 DAT. As to conditions: Alopecurus myosuroides, post-emergence, 62.5 gai/ha, read-out: % activity, solo application dicuran.
For the next test, the system named is Abutilon theoprasti. Kind of test: Greenhouse postemergence herbicidal activity on ABUTH, 20 DAT. Conditions: Abutilon, post-emergence, 62.5 gai/ha, read-out: % activity, solo application dicuran. As for the experimental part:
as §1, §2, §3, §4, §5, §6, §7

For another test, the system named is CONAR. Kind of test: Greenhouse postemergence herbicidal activity on CONAR, 20 DAT. Conditions: post-emergence, 62.5 gai/ha, read-out: % activity, solo application dicuran.
Another test deals with Amaranthus retroflexus. Description: Greenhouse postemergence herbicidal activity on AMARE, 20 DAT. Conditions: Amaranthus retroflexus, post-emergence. As for the experimental part: as §1, §2, §3, §4, §5, §6, §7
The subject of another test is Setaria viridis. Kind of test: Greenhouse postemergence herbicidal activity on SETVI, 20 DAT. As to conditions: post-emergence, 62.5 gai/ha, read-out: % activity, solo application dicuran. As for the experimental part:
as §1, §2
The respective stated components A), were formulated as a 5% by weight strength emulsion concentrate containing wettol EM 31 20% and Cyclohexanone 80%. The respective stated components B), were formulated as either emulsifiable concentrates (EC), soluble liquids (SL), suspension concentrates (SC) or soluble granules (SG) as indicated in the table below. […]
In the following experiments, the herbicidal activity for the individual herbicide compounds (solo and mixture applications), the herbicidal succession was assessed 20 days after treatment (DAT). […]
The value E, which corresponds to the effect (in %) that is to be expected if the activity of the individual compounds is additive, was calculated using the method of S. R. Colby (1967) “Calculating synergistic and antagonistic responses of herbicide combinations”, Weeds 15, p. […]
as §7

The test system of another test is Polygonum persicaria. Kind of test: Greenhouse postemergence herbicidal activity on POLPE, 20 DAT. As to conditions: Persicaria maculosa, post-emergence, 480 h, read-out: % activity, solo metsulfuron. As for the experimental part: as §1, §2, §3, §4, §5, §6, §7
The next test has as its system Sorghum bicolor. Description: Greenhouse postemergence herbicidal activity on SORVU, 20 DAT. As to conditions: Sorghum bicolor, post-emergence, 480 h, read-out: % activity, solo metsulfuron. As for the experimental part: as §1, §2, §3, §4, §5, §6, §7
The next test has as its system Ambrosia elatior. Description: Greenhouse postemergence herbicidal activity on AMBEL, 20 DAT. As to conditions: Ambrosia artemisiifolia, post-emergence, 480 h, read-out: % activity, solo metsulfuron. The protocol:
as §1, §2, §3, §4, §5, §6, §7

Setting [1] is: 480 h, read-out: % activity, solo metsulfuron.

Turning to `Cc1ccc(NC(=O)N(C)C)cc1Cl` [dicuran, Chlorotoluron], the inhibition at 62.5 g/ha with Polygonum convolvulus (POLCO, 62.5 gai/ha, postemergence, read-out: % activity, solo application dicuran) was 80%; with Ipomoea hederacea it was 85%; in the test with BROST, 0%; in the test with Conyza canadiensis (ERICA, 62.5 gai/ha, postemergence, read-out: % activity, solo application dicuran), 75%; with Galium aparine it was 35%; with Stellaria media (STEME, 62.5 gai/ha, postemergence, read-out: % activity, solo application dicuran), 85%. The inhibition at 62.5 g/ha in the test with Chenopodium album turned out to be 90%; in the test on APESV, 0%; in the test on AVEFA, 0%; with DIGSA, 0%; with Matricaria chamomilla, 85%; in the test on ALOMY it was 0%. Also, the inhibition at 62.5 g/ha was found to be 50% in the test with Abutilon theoprasti; 0% in the test with CONAR; 60% with Amaranthus retroflexus (AMARE, 62.5 gai/ha, postemergence, read-out: % activity, solo application dicuran); 0% in the test on Setaria viridis.

As to `COc1nc(C)nc(=NC(=O)NS(=O)(=O)c2ccccc2C(=O)O)[nH]1` [metsulfuron, Metsulfuron], the inhibition at 0.5 g/ha was 70% in the test on Polygonum convolvulus (setting [1]); 90% in the test with Conyza canadiensis (setting [1]); 95% in the test on Polygonum persicaria; 20% in the test on Sorghum bicolor; 5% with Ambrosia elatior. The inhibition at 1 g/ha in the test with Polygonum convolvulus (setting [1]) was found to be 95%; in the test with Polygonum persicaria, 95%; in the test with Sorghum bicolor, 35%; with Ambrosia elatior, 98%; in the test on Amaranthus retroflexus (setting [1]), 95%. The figures for the inhibition at 0.25 g/ha with Stellaria media (setting [1]) and in the test with Ambrosia elatior were 98% and 0%, respectively.

The record behind these values is patent publication US20180343865A1, “HERBICIDAL COMPOSITIONS COMPRISING ISOXAZOLO[5,4-B]PYRIDINES” (BASF SE, priority 2015, published 2018).
